Measured values from US20250380696A1, “METHOD FOR CONTROLLING UNDESIRED PLANTS AND PROMOTING GROWTH OF USEFUL PLANTS” (ISHIHARA SANGYO KAISHA, LTD., priority 2022, published 2025).

Columns and labels:
Format in all cases: in vivo
[1] = system: Italian ryegrass (Lolium multiflorum); test: (8) Herbicidal effect test, pot, spray at 3.0 to 3.1 leaf stage; details: 4th day after spraying
From the text: (§1) [formula] • X: growth inhibition rate when treated with α (g/ha) of compound A, • Y: growth inhibition rate when treated with β (g/ha) of compound B, • E: growth inhibition rate expected when treated with α (g/ha) of compound A and β (g/ha) of compound B (expected value).
Upland soil was put in a 1/1,000,000 hectare pot, and seeds of Italian ryegrass (Lolium multiflorum) were sown. When Italian ryegrass reached 3.0 to 3.1 leaf stage, a water-based suspension containing tiafenacil as the active ingredient, prepared by a conventional method for preparing a water-based suspension, and an emulsifiable concentrate containing S-metolachlor as the active ingredient (tradename: Dual Gold, manufactured by Syngenta), a wettable powder containing metribuzin as the active ingredient (tradename: SENCOR wettable powder, manufactured by Bayer Crop Science) or water dispersible granules containing pyroxasulfone as the active ingredient (tradename: Sakura, manufactured by Bayer Crop Science) were diluted with water (in an amount corresponding to 200 liter per hectare) containing 0.5 vol % of an agricultural spreader (tradename: Destiny HC, manufactured by Winfield Solutions, LLC.) and sprayed by a small spray gun (model: W-101-132G, manufactured by ANEST IWATA Corporation). On the 4th day after spraying, the state of growth of the Italian ryegrass was visually observed, and the growth inhibition rate (%) was obtained in accordance with the evaluation standards described in the above (1) herbicidal effect test, and the results are shown in Table 8. Further, the expected value of the growth inhibition rate (%) was calculated in accordance with the Colby's formula described in the above (1) herbicidal effect test, and the results are also shown in Table 8.

[2] = system: goosegrass (Eleusine indica); test: (10) Herbicidal effect test, pot, spray at 6.5 to 7.8 leaf stage; details: 13th day after spraying
From the text: as §1
Upland soil was put in a 1/1,000,000 hectare pot, and seeds of goosegrass (Eleusine indica) were sown. When the goosegrass reached 6.5 to 7.8 leaf stage, a water-based suspension containing tiafenacil as the active ingredient, prepared by a conventional method for preparing a water-based suspension, and an emulsifiable concentrate containing S-metolachlor as the active ingredient (tradename: Dual Gold, manufactured by Syngenta), a wettable powder containing metribuzin as the active ingredient (tradename: SENCOR wettable powder, manufactured by Bayer Crop Science) or water dispersible granules containing pyroxasulfone as the active ingredient (tradename: Sakura, manufactured by Bayer Crop Science) were diluted with water (in an amount corresponding to 200 liter per hectare) containing 0.5 vol % of an agricultural spreader (tradename: Destiny HC, manufactured by Winfield Solutions, LLC.) and sprayed by a small spray gun (model: W-101-132G, manufactured by ANEST IWATA Corporation). On the 13th day after spraying, the state of growth of the goosegrass was visually observed, and the growth inhibition rate (%) was obtained in accordance with the evaluation standards described in the above (1) herbicidal effect test, and the results are shown in Table 10. Further, the expected value of the growth inhibition rate (%) was calculated in accordance with the Colby's formula described in the above (1) herbicidal effect test, and the results are also shown in Table 10.

[3] = system: Italian ryegrass (Lolium multiflorum); test: (5) Herbicidal effect test, pot, spray at 3.0 to 3.3 leaf stage; details: 6th day after spraying
From the text: as §1
Upland soil was put in a 1/1,000,000 hectare pot, and seeds of Italian ryegrass (Lolium multiflorum) were sown. When the Italian ryegrass reached 3.0 to 3.3 leaf stage, a water-based suspension containing tiafenacil as the active ingredient, prepared by a conventional method for preparing a water-based suspension, and a wettable powder containing metribuzin as the active ingredient (tradename: SENCOR wettable powder, manufactured by Bayer Crop Science), water dispersible granules containing pyroxasulfone as the active ingredient (tradename: Sakura, manufactured by Bayer Crop Science) or a wettable powder containing tri-allate as the active ingredient, prepared by a conventional method for preparing a wettable powder, were diluted with water (in an amount corresponding to 200 liter per hectare) containing 0.5 vol % of an agricultural spreader (tradename: Destiny HC, manufactured by Winfield Solutions, LLC.) and sprayed by a small spray gun (model: W-101-132G, manufactured by ANEST IWATA Corporation). On the 6th day after spraying, the state of growth of the Italian ryegrass was visually observed, and the growth inhibition rate (%) was obtained in accordance with the evaluation standards described in the above (1) herbicidal effect test, and the results are shown in Table 5. Further, the expected value of the growth inhibition rate (%) was calculated in accordance with the Colby's formula described in the above (1) herbicidal effect test, and the results are also shown in Table 5.

[4] = system: wheat (cultivar: Norin 61); test: (21) Plant growth promotion effect test (wheat), Italian ryegrass sown; details: 22nd day after the sowing, above-ground part
From the text: Upland soil was put in a 1/1,000,000 hectare pot, and seeds of Italian ryegrass (Lolium multiflorum) were sown. When the Italian ryegrass reached 3.3 to 3.8 leaf stage, a water-based suspension containing tiafenacil as the active ingredient, prepared by a conventional method for preparing a water-based suspension, and a wettable powder containing metribuzin as the active ingredient (tradename: SENCOR wettable powder, manufactured by Bayer Crop Science) or water dispersible granules containing pyroxasulfone as the active ingredient (tradename: Sakura, manufactured by Bayer Crop Science) were diluted with water (in an amount corresponding to 200 liter per hectare) containing 0.5 vol % of an agricultural spreader (tradename: Destiny HC, manufactured by Winfield Solutions, LLC.) and sprayed by a small spray gun (model: W-101-132G, manufactured by ANEST IWATA Corporation). Seeds of wheat (cultivar: Norin 61, manufactured by Asahi Noen Seed Co., Ltd.) were sown in the pot after spraying. On the 22nd day after the sowing, the above-ground part of the wheat was reaped, and its weight was measured to obtain the raw weight.

[5] = Lolium multiflorum, Dose 125 g/ha, read-out: Growth inhibition rate (%) Measured value

**Q.** With `CCc1cccc(C)c1N(C(=O)CCl)[C@@H](C)COC` [S-metolachlor] as the molecule, how does the “Growth inhibition rate (%) Measured value” ([1]; Dose 281 g/ha) read?
**A.** 7%

**Q.** And the “Growth inhibition rate (%) Measured value” ([1]; Dose 500 g/ha)?
**A.** 10%

**Q.** What about the “Growth inhibition rate (%) Measured value” ([1]; Dose 625 g/ha) of the same molecule?
**A.** 13%

**Q.** What about the “Growth inhibition rate (%) Measured value” ([2]; Dose 7.5 g/ha) of the same molecule?
**A.** 7%

**Q.** And the “Growth inhibition rate (%) Measured value” ([2]; Dose 375 g/ha)?
**A.** 7%

**Q.** What about the “Growth inhibition rate (%) Measured value” ([2]; Dose 750 g/ha) of the same molecule?
**A.** 7%

**Q.** With `CSc1nnc(C(C)(C)C)c(=O)n1N` [metribuzin] as the molecule, how does the inhibition at 137.5 g/ha ([3]; Lolium multiflorum, Dose 137.5 g/ha, read-out: Growth inhibition rate (%) Measured value) read?
**A.** 20%

**Q.** What about the inhibition at 275 g/ha ([3]; Lolium multiflorum, Dose 275 g/ha, read-out: Growth inhibition rate (%) Measured value) of the same molecule?
**A.** 30%

**Q.** What about the inhibition at 550 g/ha ([3]; Lolium multiflorum, Dose 550 g/ha, read-out: Growth inhibition rate (%) Measured value) of the same molecule?
**A.** 30%

**Q.** And the inhibition at 125 g/ha [1, 5]?
**A.** 3%

**Q.** What about the inhibition at 438 g/ha ([1]; Lolium multiflorum, Dose 438 g/ha, read-out: Growth inhibition rate (%) Measured value) of the same molecule?
**A.** 10%

**Q.** And the inhibition at 750 g/ha ([1]; Lolium multiflorum, Dose 750 g/ha, read-out: Growth inhibition rate (%) Measured value)?
**A.** 20%

**Q.** What about the inhibition at 938 g/ha ([1]; Lolium multiflorum, Dose 938 g/ha, read-out: Growth inhibition rate (%) Measured value) of the same molecule?
**A.** 33%

**Q.** What about the inhibition at 9.38 g/ha ([2]; Eleusine indica, Dose 9.38 g/ha, read-out: Growth inhibition rate (%) Measured value) of the same molecule?
**A.** 7%

**Q.** What about the inhibition at 550 g/ha ([2]; Eleusine indica, Dose 550 g/ha, read-out: Growth inhibition rate (%) Measured value) of the same molecule?
**A.** 68%

**Q.** What about the inhibition at 1100 g/ha ([2]; Eleusine indica, Dose 1100 g/ha, read-out: Growth inhibition rate (%) Measured value) of the same molecule?
**A.** 72%

**Q.** And the “Raw weight (g) of wheat” value ([4]; Dose 150 g/ha)?
**A.** 2.5 g

**Q.** How did the inhibition at 7.5 g/ha ([3]; Lolium multiflorum, Dose 7.5 g/ha, read-out: Growth inhibition rate (%) Measured value) turn out when `Cn1nc(C(F)(F)F)c(CS(=O)(=O)C2=NOC(C)(C)C2)c1OC(F)F` [pyroxasulfone] was run?
**A.** 0%

**Q.** And the inhibition at 15 g/ha ([3]; Lolium multiflorum, Dose 15 g/ha, read-out: Growth inhibition rate (%) Measured value)?
**A.** 3%

**Q.** And the inhibition at 62.5 g/ha ([3]; Lolium multiflorum, Dose 62.5 g/ha, read-out: Growth inhibition rate (%) Measured value)?
**A.** 8%

**Q.** What about the inhibition at 125 g/ha [3, 5] of the same molecule?
**A.** 17%

**Q.** And the inhibition at 250 g/ha ([3]; Lolium multiflorum, Dose 250 g/ha, read-out: Growth inhibition rate (%) Measured value)?
**A.** 23%

**Q.** And the inhibition at 188 g/ha ([1]; Lolium multiflorum, Dose 188 g/ha, read-out: Growth inhibition rate (%) Measured value)?
**A.** 10%

**Q.** And the inhibition at 375 g/ha ([1]; Lolium multiflorum, Dose 375 g/ha, read-out: Growth inhibition rate (%) Measured value)?
**A.** 20%

**Q.** What about the inhibition at 7.5 g/ha ([2]; Eleusine indica, Dose 7.5 g/ha, read-out: Growth inhibition rate (%) Measured value) of the same molecule?
**A.** 0%

**Q.** What about the inhibition at 250 g/ha ([2]; Eleusine indica, Dose 250 g/ha, read-out: Growth inhibition rate (%) Measured value) of the same molecule?
**A.** 2%

**Q.** And the inhibition at 500 g/ha ([2]; Eleusine indica, Dose 500 g/ha, read-out: Growth inhibition rate (%) Measured value)?
**A.** 2%

**Q.** And the “Raw weight (g) of wheat” value ([4]; Dose 37.5 g/ha)?
**A.** 1.2 g

**Q.** How did the “Growth inhibition rate (%) Measured value” ([3]; Dose 3.13 g/ha) turn out when `COC(=O)CCNC(=O)C(C)Sc1cc(-n2c(=O)cc(C(F)(F)F)n(C)c2=O)c(F)cc1Cl` (centres unmarked) [tiafenacil] was run?
**A.** 17%

**Q.** And the “Growth inhibition rate (%) Measured value” ([3]; Dose 6.25 g/ha)?
**A.** 33%

**Q.** What about the “Growth inhibition rate (%) Measured value” ([3]; Dose 12.5 g/ha) of the same molecule?
**A.** 60%

**Q.** And the “Growth inhibition rate (%) Measured value” ([1]; Dose 6.25 g/ha)?
**A.** 20%

**Q.** And the “Growth inhibition rate (%) Measured value” ([2]; Dose 6.25 g/ha)?
**A.** 30%

**Q.** What about the “Raw weight (g) of wheat” value ([4]; Dose 3 g/ha) of the same molecule?
**A.** 2.3 g

**Q.** How did the inhibition at 75 g/ha ([3]; Lolium multiflorum, Dose 75 g/ha, read-out: Growth inhibition rate (%) Measured value) turn out when `CC(C)N(C(=O)SCC(Cl)=C(Cl)Cl)C(C)C` [tri-allate] was run?
**A.** 0%

**Q.** What about the inhibition at 150 g/ha ([3]; Lolium multiflorum, Dose 150 g/ha, read-out: Growth inhibition rate (%) Measured value) of the same molecule?
**A.** 0%

**Q.** What about the inhibition at 625 g/ha ([3]; Lolium multiflorum, Dose 625 g/ha, read-out: Growth inhibition rate (%) Measured value) of the same molecule?
**A.** 2%

**Q.** What about the inhibition at 1250 g/ha ([3]; Lolium multiflorum, Dose 1250 g/ha, read-out: Growth inhibition rate (%) Measured value) of the same molecule?
**A.** 5%
